BindingDB's records for doi:10.7270/Q2H70D5W (University of Pittsburgh, 2007)
pIC50: −log10 of the molar value.

What follows are molecules tested against Gag-Pol polyprotein (Human immunodeficiency virus type 1 group M subtype B (isolate HXB2), UniProt P04585) (assay: concentration-response of HIV-1 RNase H blockers – biochemical, probe assessment, dose response (AID 652)). Conditions: pH 8; 23 °C.
`COCCSc1ccccc1C(=O)Nc1cc(C)on1` [2-(2-methoxyethylsulfanyl)-N-(5-methyl-1,2-oxazol-3-yl)benzamide] showed a pIC50 of 4.97. For `S=c1[nH]c(C2CC2)nc2ccccc12` [SMR000075851], the pIC50 was 5.69. In the case of `O=C(NC1CCS(=O)(=O)C1)c1c(NC(=O)C2COc3ccccc3O2)sc2c1CCCC2` (stereo not given) [MLS000077500], the pIC50 was 4.33. `c1ccc(-c2ccc(-c3ccccn3)nn2)nc1` [3,6-bis(2-pyridinyl)pyridazine] gave a pIC50 of 4.81. `O=C(NCc1ccco1)c1cccnc1-c1nc2ccccc2s1` [2-(1,3-benzothiazol-2-yl)-N-(2-furanylmethyl)-3-pyridinecarboxamide] was tested, and the pIC50 was 5.49. With `COc1cc(/N=c2/ssnc2Cl)cc(OC)c1OC` [SMR000025034] the pIC50 was 6.55. With `Cc1ccnc(-n2sc3ccccc3c2=O)n1` [2-(4-methyl-2-pyrimidinyl)-1,2-benzothiazol-3-one] the pIC50 was 5.93. `COC(=O)c1ccccc1NC(=O)c1ccc2c(c1)C(=O)N(Cc1ccco1)C2=O` [2-[[2-(2-furfuryl)-1,3-diketo-isoindoline-5-carbonyl]amino]benzoic acid methyl ester] showed a pIC50 of 5.13. For `Cc1ccccc1NC(=O)CSc1nc2c(c(-c3ccco3)c1C#N)CCCC2` [2-[[3-cyano-4-(2-furanyl)-5,6,7,8-tetrahydroquinolin-2-yl]thio]-N-(2-methylphenyl)acetamide], the pIC50 was 5.28. For `c1ccc2c(c1)nnn2Cc1nnc2sc(-c3ccc4c(c3)OCCO4)nn12` [1-{[6-(2,3-dihydro-1,4-benzodioxin-6-yl)[1,2,4]triazolo[3,4-b][1,3,4]thiadiazol-3-yl]methyl}-1H-1,2,3-benzotriazole], the pIC50 was 5.77. With `CCCCCn1c(SCCCC)nc2c1c(=O)[nH]c(=O)n2C` the pIC50 was 5.61. In the case of `Cc1ccc(NC(=O)CSc2nnc(-c3ccc(S(=O)(=O)N4CCCC4)cc3)o2)cc1C` [MLS000071775], the pIC50 was 4.91. For `COc1ccc(N2CCN(Cc3cc(=O)oc4cc(C)c(Cl)c(C)c34)CC2)cc1` [6-chloranyl-4-[[4-(4-methoxyphenyl)piperazin-1-yl]methyl]-5,7-dimethyl-chromen-2-one], the pIC50 was 5.41. Work on `O=C(c1ccccc1F)N1CCN(S(=O)(=O)c2ccc(S(=O)(=O)N3CCCCC3)cc2)CC1` [(2-Fluoro-phenyl)-{4-[4-(piperidine-1-sulfonyl)-benzenesulfonyl]-piperazin-1-yl}-methanone] yielded a pIC50 of 4.36. For `CCCCCCNC(=O)c1c(N)n(N=Cc2ccco2)c2nc3ccccc3nc12` [SMR000042381], the pIC50 was 5.56. For `Cc1cc(NC(=O)CSc2nc3cc4c(cc3c(=O)n2CCc2ccccc2)OCO4)no1` [2-[(8-keto-7-phenethyl-[1,3]dioxolo[4,5-g]quinazolin-6-yl)thio]-N-(5-methylisoxazol-3-yl)acetamide], the pIC50 was 5.32. With `COCCn1c(-c2ccc(-c3ccccc3Cl)o2)nc2c1c(=O)[nH]c(=O)n2CC(C)C` the pIC50 was 5.34. `Cc1cccc(-n2c(N)c(C(=O)N3CCN(C)CC3)sc2=S)c1` [MLS000056753] showed a pIC50 of 4.35. Work on `O=C1CC(c2ccco2)Cc2nc(Nc3nc(-c4ccccc4)c4ccccc4n3)ncc21` (stereo not given) [7-(2-furanyl)-2-[(4-phenyl-2-quinazolinyl)amino]-7,8-dihydro-6H-quinazolin-5-one] yielded a pIC50 of 4.86. In the case of `NC(=O)c1cc(-c2ccccc2)sc1NC(=O)Cc1ccc(S(=O)(=O)N2CCOCC2)s1` [2-[2-(5-morpholin-4-ylsulfonylthiophen-2-yl)ethanoylamino]-5-phenyl-thiophene-3-carboxamide], the pIC50 was 5.13. `c1ccc(-c2ccc(C3=Nc4ncnn4C(c4ccco4)C3)cc2)cc1` (stereo not given) showed a pIC50 of 4.84. In the case of `O=C(NCCc1ccccc1)c1c(O)n2c3c(cccc3c1=O)CC2` [6-Hydroxy-4-oxo-1,2-dihydro-4H-pyrrolo[3,2,1-ij]quinoline-5-carboxylic acid phenethyl-amide], the pIC50 was 5.00. With `c1ccc(Cc2nn3c(COc4ccccc4)nnc3s2)cc1` [3-(phenoxymethyl)-6-(phenylmethyl)-[1,2,4]triazolo[3,4-b][1,3,4]thiadiazole] the pIC50 was 5.87. `O=c1ccc2cc3c([nH]c4ccc(Br)cc43)oc-2c1O` [9-bromo-4-hydroxy-6H-[1]benzopyrano[2,3-b]indol-3-one] was tested, and the pIC50 was 5.83. With `N#Cc1c(NC(=O)c2ccc(Cn3cc(Br)cn3)o2)sc2c1CCCCCC2` [5-[(4-bromanylpyrazol-1-yl)methyl]-N-(3-cyano-4,5,6,7,8,9-hexahydrocycloocta[b]thiophen-2-yl)furan-2-carboxamide] the pIC50 was 5.86. In the case of `Cc1cccc(N2CSC3=C(C#N)C(c4ccc(C)o4)CC(=O)N3C2)c1` (stereo not given) [MLS000080648], the pIC50 was 6.36. With `COC(=O)c1ccccc1S(=O)(=O)N(Cc1cc2cc3c(cc2[nH]c1=O)OCO3)C1CCCCC1` [SMR000002998] the pIC50 was 4.68. For `COc1ccc(OC)c(S(=O)(=O)Nc2ccc(O)c(Sc3nc[nH]n3)c2)c1` [N-[4-hydroxy-3-(1H-1,2,4-triazol-3-ylthio)phenyl]-2,5-dimethoxybenzenesulfonamide], the pIC50 was 5.61. `c1ccc(Cc2nn3c(Cn4cnc5ccccc54)nnc3s2)cc1` [1-[(6-benzyl[1,2,4]triazolo[3,4-b][1,3,4]thiadiazol-3-yl)methyl]-1H-benzimidazole] showed a pIC50 of 5.66. `CCCc1cc(C(=O)Nc2sc(C)c(C)c2C(=O)OCC)no1` [4,5-dimethyl-2-[(5-propylisoxazole-3-carbonyl)amino]thiophene-3-carboxylic acid ethyl ester] was tested, and the pIC50 was 5.60. `COc1cc(OC)c(C2CC(=O)N3CN(C)CSC3=C2C#N)cc1OC` (stereo not given) [3-methyl-6-oxidanylidene-8-(2,4,5-trimethoxyphenyl)-2,4,7,8-tetrahydropyrido[2,1-b][1,3,5]thiadiazine-9-carbonitrile] showed a pIC50 of 4.84. `CCCSc1nc2c(cnn2-c2ccc(Cl)cc2)c(=O)[nH]1` [MLS000091828] showed a pIC50 of 5.02. Molecule `Fc1ccc(-c2ccc(-c3nn4c(-c5ccco5)nnc4s3)o2)cc1` [6-[5-(4-fluorophenyl)-2-furanyl]-3-(2-furanyl)-[1,2,4]triazolo[3,4-b][1,3,4]thiadiazole] has a pIC50 of 5.05. Work on `CCOC(=O)c1c(C2COc3ccccc3O2)csc1NC(=O)c1ccco1` (stereo not given) [4-(2,3-dihydro-1,4-benzodioxin-3-yl)-2-(2-furoylamino)thiophene-3-carboxylic acid ethyl ester] yielded a pIC50 of 6.18. `O=C(Nc1ccc2nc(-c3ccco3)c(-c3ccco3)nc2c1)N1CCCCCC1` gave a pIC50 of 6.02. Work on `Cc1cc(C)c2oc(-c3ccc(Cl)c(NC(=O)c4ccc(C#N)cc4F)c3)nc2c1` [MLS000052597] yielded a pIC50 of 5.56. `Nc1sc2c(c1C(=O)NC1CCS(=O)(=O)C1)CCC2` (stereo not given) [2-Amino-5,6-dihydro-4H-cyclopenta[b]thiophene-3-carboxylic acid (1,1-dioxo-tetrahydro-1lambda*6*-thiophen-3-yl)-amide] gave a pIC50 of 4.57. Work on `c1ccc2c(c1)ncn2Cc1nnc2sc(-c3ccc4c(c3)OCO4)nn12` [3-(1-benzimidazolylmethyl)-6-(1,3-benzodioxol-5-yl)-[1,2,4]triazolo[3,4-b][1,3,4]thiadiazole] yielded a pIC50 of 5.91. `COc1ccc(N2CSC3=C(C#N)C(c4cc(OC)c(OC)cc4OC)CC(=O)N3C2)c(OC)c1` (stereo not given) [MLS000117261] gave a pIC50 of 4.92. In the case of `CCn1c(SCC(=O)c2ccc(O)c(O)c2)nnc1-c1ccccc1OC` [1-(3,4-dihydroxyphenyl)-2-[[4-ethyl-5-(2-methoxyphenyl)-1,2,4-triazol-3-yl]sulfanyl]ethanone], the pIC50 was 5.63. `CN1CSC2=C(C#N)C(c3cccc(OCc4ccccc4)c3)CC(=O)N2C1` (stereo not given) was tested, and the pIC50 was 4.97. `COc1cccc(OC)c1-c1nn2c(-c3cc(-c4ccccc4)n[nH]3)nnc2s1` [MLS000083027] gave a pIC50 of 5.42. `CCOC(=O)C1=C(C)N=c2s/c(=C3/C(=O)Nc4ccccc43)c(=O)n2C1c1ccc2c(c1)OCO2` (stereo not given) [SMR000072283] was tested, and the pIC50 was 5.97. For `CCCc1nc2ccccc2c(=O)n1N=Cc1ccc(O)c(O)c1`, the pIC50 was 6.12. `CC1(C)Cc2[nH]c(=S)c(C#N)cc2CO1` [7,7-dimethyl-2-sulfanylidene-5,8-dihydro-1H-pyrano[4,3-b]pyridine-3-carbonitrile] gave a pIC50 of 5.39. Molecule `COC(=O)c1ccc2c(=O)[nH]c(CN3c4ccccc4CC3C)nc2c1` (stereo not given) [methyl 2-[(2-methyl-2,3-dihydroindol-1-yl)methyl]-4-oxo-1H-quinazoline-7-carboxylate] has a pIC50 of 4.88. `c1csc(-c2nn3c(C4COc5ccccc5O4)nnc3s2)c1` (stereo not given) [3-(2,3-dihydro-1,4-benzodioxin-2-yl)-6-(2-thienyl)[1,2,4]triazolo[3,4-b][1,3,4]thiadiazole] was tested, and the pIC50 was 5.92. Work on `CCCc1cc(C(N)=O)c(NC(=O)C2CCCO2)s1` (stereo not given) [MLS000065925] yielded a pIC50 of 5.72. `COc1cc(-c2nnc3sc(Cc4ccc(Cl)cc4)nn23)cc(OC)c1OC` [6-(4-chlorobenzyl)-3-(3,4,5-trimethoxyphenyl)-[1,2,4]triazolo[3,4-b][1,3,4]thiadiazole] showed a pIC50 of 5.97. `Cc1ccc(-c2cc(C(=O)NC3=NCCS3)c3cc(Br)ccc3n2)o1` [6-bromanyl-N-(4,5-dihydro-1,3-thiazol-2-yl)-2-(5-methylfuran-2-yl)quinoline-4-carboxamide] gave a pIC50 of 6.76. For `Cc1cc(C)cc(OCC(=O)Nc2nonc2NC(=O)COc2cc(C)cc(C)c2)c1` [2-(3,5-dimethylphenoxy)-N-[4-[2-(3,5-dimethylphenoxy)ethanoylamino]-1,2,5-oxadiazol-3-yl]ethanamide], the pIC50 was 5.72. `COc1ccc2nc(O)c(CN(C3CCCCC3)C(c3nnnn3Cc3ccco3)C(C)C)cc2c1` (stereo not given) [3-[[cyclohexyl-[1-[1-(2-furanylmethyl)-5-tetrazolyl]-2-methylpropyl]amino]methyl]-6-methoxy-1H-quinolin-2-one] was tested, and the pIC50 was 5.99. In the case of `CCCc1cc(C(=O)Nc2sc3c(c2C#N)CCC3)no1` [MLS000116386], the pIC50 was 5.55. `c1ccc2c(c1)OCC(c1nnc3sc(-c4ccc5c(c4)OCO5)nn13)O2` (stereo not given) [6-(1,3-benzodioxol-5-yl)-3-(2,3-dihydro-1,4-benzodioxin-3-yl)-[1,2,4]triazolo[3,4-b][1,3,4]thiadiazole] was tested, and the pIC50 was 5.84. `C=CCOC(=O)C1=C(C)N=C(SCC(=O)Nc2ccc(C)c(Cl)c2)C(C#N)C1c1ccco1` (stereo not given) [prop-2-enyl 6-[2-(3-chloro-4-methylanilino)-2-oxoethyl]sulfanyl-5-cyano-4-(furan-2-yl)-2-methyl-1,4-dihydropyridine-3-carboxylate] showed a pIC50 of 5.37.
